Source: ChEMBL document CHEMBL5226375, “Synthesis and Comprehensive in Vivo Activity Profiling of Olean-12-en-28-ol, 3β-Pentacosanoate in Experimental Autoimmune Encephalomyelitis: A Natural Remyelinating and Anti-Inflammatory Agent” (J Nat Prod, 2023)
The source made the active and inactive calls. No cut-off for these calls is given here.

Assays:
Mus musculus [1] = assay: Anti-inflammatory activity against MOG35-55-induced experimental autoimmune encephalomyelitis C57BL/6 mouse model assessed as fold change in CXCL10 gene expression in brain at 300 mg/kg/day, ig for 14 days starting from 12th day of immunization by RT-qPCR analysis relative to control; type: functional; conditions: time 14 day
Mus musculus [2] = assay: Anti-inflammatory activity against MOG35-55-induced experimental autoimmune encephalomyelitis C57BL/6 mouse model assessed as fold change in CXCL9 gene expression in brain at 600 mg/kg/day, ig for 14 days starting from 12th day of immunization by RT-qPCR analysis relative to control; type: functional; conditions: time 14 day
Mus musculus [3] = assay: Anti-inflammatory activity against MOG35-55-induced experimental autoimmune encephalomyelitis C57BL/6 mouse model assessed as increase in brain IL-10 level at 600 mg/kg/day, ig for 14 days starting from 12th day of immunization by ELISA; type: functional, organism-based; conditions: time 14.0 day
Mus musculus [4] = assay: Anti-inflammatory activity against MOG35-55-induced experimental autoimmune encephalomyelitis C57BL/6 mouse model assessed as fold change in CXCL9 gene expression in brain at 300 mg/kg/day, ig for 14 days starting from 12th day of immunization by RT-qPCR analysis relative to control; type: functional; conditions: time 14 day
Mus musculus [5] = assay: Anti-inflammatory activity against MOG35-55-induced experimental autoimmune encephalomyelitis C57BL/6 mouse model assessed as fold change in NFKB gene expression in brain at 600 mg/kg/day, ig for 14 days starting from 12th day of immunization by RT-qPCR analysis relative to control; type: functional; conditions: time 14 day
Mus musculus [6] = assay: Anti-inflammatory activity against MOG35-55-induced experimental autoimmune encephalomyelitis C57BL/6 mouse model assessed as fold change in TNF-alpha gene expression in brain at 600 mg/kg/day, ig for 14 days starting from 12th day of immunization by RT-qPCR analysis relative to control; type: functional; conditions: time 14 day
Mus musculus [7] = assay: Anti-inflammatory activity against MOG35-55-induced experimental autoimmune encephalomyelitis C57BL/6 mouse model assessed as fold change in H2EB1 (HLA-DRB1) gene expression in brain at 300 mg/kg/day, ig for 14 days starting from 12th day of immunization by RT-qPCR analysis relative to control; type: functional; conditions: time 14 day
Mus musculus [8] = assay: Anti-inflammatory activity against MOG35-55-induced experimental autoimmune encephalomyelitis C57BL/6 mouse model assessed as reduction in IL-6 protein expression in brain at 300 to 600 mg/kg/day, ig for 14 days starting from 12th day of immunization by western blot analysis; type: functional, organism-based; conditions: dose 300-600 mg/kg/day, time 14.0 day
Mus musculus [9] = assay: Anti-inflammatory activity against MOG35-55-induced experimental autoimmune encephalomyelitis C57BL/6 mouse model assessed as fold change in STAT3 gene expression in brain at 600 mg/kg/day, ig for 14 days starting from 12th day of immunization by RT-qPCR analysis relative to control; type: functional; conditions: time 14 day
Mus musculus [10] = assay: Anti-inflammatory activity against MOG35-55-induced experimental autoimmune encephalomyelitis C57BL/6 mouse model assessed as reduction in serum chemokines level by measuring reduction in FASL level at 600 mg/kg/day, ig for 14 days starting from 12th day of immunization by ELISA; type: functional, organism-based; conditions: time 14.0 day
Mus musculus [11] = assay: Anti-inflammatory activity against MOG35-55-induced experimental autoimmune encephalomyelitis C57BL/6 mouse model assessed as fold change in CCL5 gene expression in brain at 300 mg/kg/day, ig for 14 days starting from 12th day of immunization by RT-qPCR analysis relative to control; type: functional; conditions: time 14 day
Mus musculus [12] = assay: Anti-inflammatory activity against MOG35-55-induced experimental autoimmune encephalomyelitis C57BL/6 mouse model assessed as reduction in serum chemokines level by measuring reduction in […] level at 600 mg/kg/day, ig for 14 days starting from 12th day of immunization by ELISA; type: functional, organism-based; conditions: time 14.0 day
Mus musculus [13] = assay: Anti-inflammatory activity against MOG35-55-induced experimental autoimmune encephalomyelitis C57BL/6 mouse model assessed as reduction in serum monokines level by measuring reduction in IL-6 level at 600 mg/kg/day, ig for 14 days starting from 12th day of immunization by ELISA; type: functional, organism-based; conditions: time 14.0 day
Mus musculus [14] = assay: Anti-inflammatory activity against MOG35-55-induced experimental autoimmune encephalomyelitis C57BL/6 mouse model assessed as fold change in TGFB1 gene expression in brain at 300 mg/kg/day, ig for 14 days starting from 12th day of immunization by RT-qPCR analysis relative to control; type: functional; conditions: time 14 day
Mus musculus [15] = assay: Anti-inflammatory activity against MOG35-55-induced experimental autoimmune encephalomyelitis C57BL/6 mouse model assessed as reduction in EAE symptoms by measuring reduction in clinical score at 300 to 600 mg/kg/day, ig starting from 12th day of immunization and measured on day 14 post-immunization; type: functional, organism-based; conditions: dose 300-600 mg/kg/day, time 2.0 day
Mus musculus [16] = assay: Anti-inflammatory activity against MOG35-55-induced experimental autoimmune encephalomyelitis C57BL/6 mouse model assessed as increase in serum IL-10 level at 600 mg/kg/day, ig for 14 days starting from 12th day of immunization by ELISA; type: functional, organism-based; conditions: time 14.0 day
Mus musculus [17] = assay: Anti-inflammatory activity against MOG35-55-induced experimental autoimmune encephalomyelitis C57BL/6 mouse model assessed as reduction in serum chemokines level by measuring reduction in CXCL1 level at 600 mg/kg/day, ig for 14 days starting from 12th day of immunization by ELISA; type: functional, organism-based; conditions: time 14.0 day
Mus musculus [18] = assay: Anti-inflammatory activity against MOG35-55-induced experimental autoimmune encephalomyelitis C57BL/6 mouse model assessed as upregulation of PLP protein expression in brain at 0.15 to 0.3 mg/kg/day, ig for 14 days starting from 12th day of immunization by western blot analysis; type: functional, organism-based; conditions: dose 0.15-0.3 mg/kg/day, time 14.0 day
Mus musculus [19] = assay: Anti-inflammatory activity against MOG35-55-induced experimental autoimmune encephalomyelitis C57BL/6 mouse model assessed as fold change in TGFB1 gene expression in brain at 0.3 mg/kg/day, ig for 14 days starting from 12th day of immunization by RT-qPCR analysis relative to control; type: functional; conditions: time 14 day
Mus musculus [20] = assay: Anti-inflammatory activity against MOG35-55-induced experimental autoimmune encephalomyelitis C57BL/6 mouse model assessed as reduction in serum chemokines level by measuring reduction in IL-3 level at 0.3 mg/kg/day, ig for 14 days starting from 12th day of immunization by ELISA; type: functional, organism-based; conditions: time 14.0 day
Mus musculus [21] = assay: Anti-inflammatory activity against MOG35-55-induced experimental autoimmune encephalomyelitis C57BL/6 mouse model assessed as reduction in serum monokines level by measuring reduction in IL-6 level at 0.3 mg/kg/day, ig for 14 days starting from 12th day of immunization by ELISA; type: functional, organism-based; conditions: time 14.0 day
Mus musculus [22] = assay: Anti-inflammatory activity against MOG35-55-induced experimental autoimmune encephalomyelitis C57BL/6 mouse model assessed as methylation of CpG sites of IL13 gene promoter in brain at […], ig for 14 days starting from 12th day of immunization by PCR analysis (reference value: 57.3 +/-8%); type: functional; conditions: time 14 day
Mus musculus [23] = assay: Anti-inflammatory activity against MOG35-55-induced experimental autoimmune encephalomyelitis C57BL/6 mouse model assessed as fold change in GFAP gene expression in brain at 0.15 mg/kg/day, ig for 14 days starting from 12th day of immunization by RT-qPCR analysis relative to control; type: functional; conditions: time 14 day

CCCCCCCCCCCCCCCCCCCCCCCCC(=O)O[C@H]1CC[C@]2(C)[C@H]3CC=C4[C@@H]5CC(C)(C)CC[C@]5(CO)CC[C@@]4(C)[C@]3(C)CC[C@H]2C1(C)C
fold change (FC) (Mus musculus [1]): 3.24
fold change (FC) (Mus musculus [2]): -1.14
Activity (Mus musculus [3]): Active
fold change (FC) (Mus musculus [4]): 1.63
fold change (FC) (Mus musculus [5]): 1.46
fold change (FC) (Mus musculus [6]): 1.52
fold change (FC) (Mus musculus [7]): 2.83
Activity (Mus musculus [8]): Active
fold change (FC) (Mus musculus [9]): 1.32
Activity (Mus musculus [10]): Active
fold change (FC) (Mus musculus [11]): 2.69
Activity (Mus musculus [12]): Active
Activity (Mus musculus [13]): Active
fold change (FC) (Mus musculus [14]): -1.51
Activity (Mus musculus [15]): Active
Activity (Mus musculus [16]): Active
Activity (Mus musculus [17]): Active

CCCCCCCCc1ccc(CCC(N)(CO)CO)cc1 [FINGOLIMOD]
Activity (Mus musculus [18]): inactive
fold change (FC) (Mus musculus [19]): 10.7
Activity (Mus musculus [20]): Active
Activity (Mus musculus [21]): Active
Activity (Mus musculus [22]): 33.1%
fold change (FC) (Mus musculus [23]): 2.62
